The target in one assay is h-CA I (Homo sapiens, UniProt P00915). The assay can be described thus: stopped-flow CO2 hydrase assay, h-CA I.
Another assay addresses h-CA XII (Homo sapiens, UniProt O43570). Put plainly: stopped-flow CO2 hydrase assay, h-CA XII.
For a further assay, the target named is h-CA II (Homo sapiens, UniProt P00918). Put plainly: stopped-flow CO2 hydrase assay, h-CA II.
For a further assay, the target named is h-CA IX (Homo sapiens, UniProt Q16790). The assay can be described thus: stopped-flow CO2 hydrase assay, h-CA IX.

This note sets out measurements from article PMC11944513, “Investigation on Human Carbonic Anhydrase IX and XII Inhibitory Activity and A549 Antiproliferative Activity of a New Class of Coumarinamides” (Pharmaceuticals, 2025).

h-CA I, sequence (P00915 whole entry): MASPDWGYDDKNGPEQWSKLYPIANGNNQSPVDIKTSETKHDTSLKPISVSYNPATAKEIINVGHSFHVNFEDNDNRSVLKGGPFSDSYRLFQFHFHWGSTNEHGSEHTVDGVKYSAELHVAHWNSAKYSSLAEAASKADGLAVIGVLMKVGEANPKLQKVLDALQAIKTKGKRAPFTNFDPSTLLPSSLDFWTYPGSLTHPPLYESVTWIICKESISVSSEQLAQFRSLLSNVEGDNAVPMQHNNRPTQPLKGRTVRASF
h-CA XII, sequence (O43570 25-354): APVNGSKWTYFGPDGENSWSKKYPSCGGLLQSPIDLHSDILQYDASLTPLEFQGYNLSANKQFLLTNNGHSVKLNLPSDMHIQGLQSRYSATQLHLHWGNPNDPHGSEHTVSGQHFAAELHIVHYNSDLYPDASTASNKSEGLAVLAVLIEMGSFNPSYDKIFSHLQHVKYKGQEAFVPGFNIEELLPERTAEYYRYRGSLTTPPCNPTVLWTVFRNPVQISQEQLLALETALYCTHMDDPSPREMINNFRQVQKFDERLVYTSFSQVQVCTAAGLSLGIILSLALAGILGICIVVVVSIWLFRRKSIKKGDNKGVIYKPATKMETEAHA

As a reminder, the Ki is a dissociation constant, usually derived from enzyme kinetics or from competition with a known ligand. For the compound `COc1ccccc1CNC(=O)c1cc2ccc(O)cc2oc1=O` [Compound 8, 7-Hydroxy-N-(2-Methoxybenzyl)-2-Oxo-2H-Chromene-3-Carboxamide], the Ki at h-CA I is more than 100 µM; on h-CA XII it was 70.2 µM; on h-CA II, more than 100 µM; at h-CA IX it was 77.4 µM.
Take `COc1cccc(CNC(=O)c2cc3ccc(O)cc3oc2=O)c1` [Compound 10, 7-Hydroxy-N-(3-Methoxybenzyl)-2-Oxo-2H-Chromene-3-Carboxamide]: the Ki at h-CA I was more than 100 µM; on h-CA XII, 73.1 µM; at h-CA II, more than 100 µM; on h-CA IX, 63.1 µM.
In the case of `O=C(NCc1ccc([N+](=O)[O-])cc1)c1cc2ccc(O)cc2oc1=O` [Compound 11, 7-Hydroxy-N-(4-Nitrobenzyl)-2-Oxo-2H-Chromene-3-Carboxamide], the Ki at h-CA I is more than 100 µM; at h-CA XII, 49.8 µM; at h-CA II, more than 100 µM; at h-CA IX, 75.7 µM.
In the case of `O=C(NCc1cccc([N+](=O)[O-])c1)c1cc2ccc(O)cc2oc1=O` [Compound 12, 7-Hydroxy-N-(3-Nitrobenzyl)-2-Oxo-2H-Chromene-3-Carboxamide], the Ki is more than 100 µM at h-CA I, 55.2 µM on h-CA XII, more than 100 µM on h-CA II and 64.7 µM on h-CA IX.
As for `O=C(NCc1ccc(F)cc1)c1cc2ccc(O)cc2oc1=O` [Compound 13, N-(4-Fluorobenzyl)-7-Hydroxy-2-Oxo-2H-Chromene-3-Carboxamide], the Ki was more than 100 µM at h-CA I, 70.5 µM on h-CA XII, more than 100 µM on h-CA II and 86.9 µM at h-CA IX.
`O=C(NCc1cccc(F)c1)c1cc2ccc(O)cc2oc1=O` [Compound 14, N-(3-Fluorobenzyl)-7-Hydroxy-2-Oxo-2H-Chromene-3-Carboxamide]: the Ki on h-CA I is more than 100 µM; on h-CA XII, 57.6 µM; on h-CA II, more than 100 µM; on h-CA IX, 73.2 µM.
As for `O=C(NCc1ccccc1C(F)(F)F)c1cc2ccc(O)cc2oc1=O` [Compound 15, 7-Hydroxy-2-Oxo-N-(2-(Trifluoromethyl)benzyl)-2H-Chromene-3-Carboxamide], the Ki at h-CA I is more than 100 µM; at h-CA XII, 31.5 µM; at h-CA II, more than 100 µM; at h-CA IX, 50 µM.
Consider `O=C(NCc1cccc(C(F)(F)F)c1)c1cc2ccc(O)cc2oc1=O` [Compound 16, 7-Hydroxy-2-Oxo-N-(3-(Trifluoromethyl)benzyl)-2H-Chromene-3-Carboxamide], for which the Ki on h-CA I is more than 100 µM; on h-CA XII, 64.4 µM; on h-CA II, more than 100 µM; at h-CA IX, 77.1 µM.
Consider `O=C(NCc1ccc(C(F)(F)F)cc1)c1cc2ccc(O)cc2oc1=O` [Compound 17, 7-Hydroxy-2-Oxo-N-(4-(Trifluoromethyl)benzyl)-2H-Chromene-3-Carboxamide], for which the Ki at h-CA I is more than 100 µM; at h-CA XII it was 54.1 µM; on h-CA II it was more than 100 µM; on h-CA IX, 83.7 µM.
Regarding `O=C(NCc1ccc(Br)cc1)c1cc2ccc(O)cc2oc1=O` [Compound 18, N-(4-Bromobenzyl)-7-Hydroxy-2-Oxo-2H-Chromene-3-Carboxamide], the Ki at h-CA I is more than 100 µM; at h-CA XII, 26.1 µM; at h-CA II, more than 100 µM; at h-CA IX, 60.7 µM.
On to `O=C(NCc1cccc(Cl)c1)c1cc2ccc(O)cc2oc1=O` [Compound 20, N-(3-Chlorobenzyl)-7-Hydroxy-2-Oxo-2H-Chromene-3-Carboxamide], for which the Ki on h-CA I was more than 100 µM; at h-CA XII it was 42.6 µM; at h-CA II, more than 100 µM; on h-CA IX, 33.9 µM.
For the compound `O=C(NCc1ccc(Cl)cc1)c1cc2ccc(O)cc2oc1=O` [Compound 21, N-(4-Chlorobenzyl)-7-Hydroxy-2-Oxo-2H-Chromene-3-Carboxamide], the Ki at h-CA I is more than 100 µM; on h-CA XII it was 39.7 µM; on h-CA II it was more than 100 µM; on h-CA IX, 80.7 µM.
